Results reported in US9708318B2, “Bicyclic heterocycles as FGFR4 inhibitors” (Incyte Corporation, priority 2015, dated 2017).
Where two headings read alike, the source gives them in different places.

Key:
[1] = biological target: FGFR2 (Homo sapiens (Human), UniProt P21802); test: FGFR Enzymatic Assay (FRET peptide phosphorylation), FGFR2; format: biochemical
Description: (§1) The inhibitor potency of the exemplified compounds was measured in an enzyme assay that measures peptide phosphorylation using FRET measurements to detect product formation. Inhibitors were serially diluted in DMSO and a volume of 0.5 μL was transferred to the wells of a 384-well plate.
(§2) The enzymes were purchased from Millipore or Invitrogen.
(§3) GraphPad prism3 was used to analyze the data.

[2] = biological target: FGFR3 enzyme (Homo sapiens (Human), UniProt P22607); test: FGFR Enzymatic Assay (FRET peptide phosphorylation), FGFR3; format: biochemical; details: for FGFR1/FGFR3 IC50 ratio / FGFR4/FGFR3 IC50 ratio: FGFR3 selectivity
Chain of FGFR3 enzyme (P22607 23-806): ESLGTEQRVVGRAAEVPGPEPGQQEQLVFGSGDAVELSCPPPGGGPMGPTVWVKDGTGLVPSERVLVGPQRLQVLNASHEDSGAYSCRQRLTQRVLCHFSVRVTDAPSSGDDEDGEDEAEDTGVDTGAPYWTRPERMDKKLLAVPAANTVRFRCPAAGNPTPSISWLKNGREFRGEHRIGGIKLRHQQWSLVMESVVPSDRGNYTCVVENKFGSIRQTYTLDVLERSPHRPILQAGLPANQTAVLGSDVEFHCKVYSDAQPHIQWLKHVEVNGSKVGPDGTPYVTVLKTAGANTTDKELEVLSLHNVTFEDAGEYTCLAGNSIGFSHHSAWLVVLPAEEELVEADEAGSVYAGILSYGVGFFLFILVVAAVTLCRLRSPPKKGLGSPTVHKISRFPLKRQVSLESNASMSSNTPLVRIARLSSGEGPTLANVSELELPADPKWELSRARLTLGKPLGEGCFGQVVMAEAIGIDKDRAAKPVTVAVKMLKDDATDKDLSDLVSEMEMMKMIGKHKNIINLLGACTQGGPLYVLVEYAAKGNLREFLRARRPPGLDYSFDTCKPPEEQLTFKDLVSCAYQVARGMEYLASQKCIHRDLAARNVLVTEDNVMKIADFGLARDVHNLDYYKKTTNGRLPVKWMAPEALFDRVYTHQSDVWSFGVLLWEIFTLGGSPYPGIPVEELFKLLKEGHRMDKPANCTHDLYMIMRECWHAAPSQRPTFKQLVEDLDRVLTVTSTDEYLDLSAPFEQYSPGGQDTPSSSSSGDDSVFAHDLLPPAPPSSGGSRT
Description: as §1, §3

[3] = biological target: FGFR4 (Homo sapiens (Human), UniProt P22455); test: FGFR Enzymatic Assay (FRET peptide phosphorylation), FGFR4; format: biochemical; details: for FGFR1/FGFR4 IC50 ratio / FGFR2/FGFR4 IC50 ratio / FGFR3/FGFR4 IC50 ratio: FGFR4 selectivity
Chain of FGFR4 (P22455 22-802): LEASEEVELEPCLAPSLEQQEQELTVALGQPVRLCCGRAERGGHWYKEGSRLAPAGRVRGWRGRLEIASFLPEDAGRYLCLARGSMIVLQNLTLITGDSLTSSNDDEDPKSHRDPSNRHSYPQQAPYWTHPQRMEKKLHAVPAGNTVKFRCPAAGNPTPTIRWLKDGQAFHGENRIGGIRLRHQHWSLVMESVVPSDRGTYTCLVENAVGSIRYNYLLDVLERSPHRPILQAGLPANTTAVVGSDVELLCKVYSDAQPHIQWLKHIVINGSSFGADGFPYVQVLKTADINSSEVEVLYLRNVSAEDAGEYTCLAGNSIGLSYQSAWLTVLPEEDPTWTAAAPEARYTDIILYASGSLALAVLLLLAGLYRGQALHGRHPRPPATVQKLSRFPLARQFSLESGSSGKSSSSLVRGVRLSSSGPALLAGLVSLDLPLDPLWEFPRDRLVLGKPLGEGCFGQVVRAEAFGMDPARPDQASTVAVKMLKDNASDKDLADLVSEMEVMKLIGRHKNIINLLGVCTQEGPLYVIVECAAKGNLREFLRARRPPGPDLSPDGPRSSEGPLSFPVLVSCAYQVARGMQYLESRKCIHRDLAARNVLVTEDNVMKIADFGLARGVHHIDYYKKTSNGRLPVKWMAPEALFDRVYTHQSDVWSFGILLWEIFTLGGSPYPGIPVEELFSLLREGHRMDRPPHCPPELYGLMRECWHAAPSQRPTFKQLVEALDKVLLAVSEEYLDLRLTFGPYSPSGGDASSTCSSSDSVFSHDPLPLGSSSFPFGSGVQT
Description: as §1, §2, §3

[4] = biological target: FGFR1 (Homo sapiens (Human), UniProt P11362); test: FGFR Enzymatic Assay (FRET peptide phosphorylation), FGFR1
Chain of FGFR1 (P11362 22-822): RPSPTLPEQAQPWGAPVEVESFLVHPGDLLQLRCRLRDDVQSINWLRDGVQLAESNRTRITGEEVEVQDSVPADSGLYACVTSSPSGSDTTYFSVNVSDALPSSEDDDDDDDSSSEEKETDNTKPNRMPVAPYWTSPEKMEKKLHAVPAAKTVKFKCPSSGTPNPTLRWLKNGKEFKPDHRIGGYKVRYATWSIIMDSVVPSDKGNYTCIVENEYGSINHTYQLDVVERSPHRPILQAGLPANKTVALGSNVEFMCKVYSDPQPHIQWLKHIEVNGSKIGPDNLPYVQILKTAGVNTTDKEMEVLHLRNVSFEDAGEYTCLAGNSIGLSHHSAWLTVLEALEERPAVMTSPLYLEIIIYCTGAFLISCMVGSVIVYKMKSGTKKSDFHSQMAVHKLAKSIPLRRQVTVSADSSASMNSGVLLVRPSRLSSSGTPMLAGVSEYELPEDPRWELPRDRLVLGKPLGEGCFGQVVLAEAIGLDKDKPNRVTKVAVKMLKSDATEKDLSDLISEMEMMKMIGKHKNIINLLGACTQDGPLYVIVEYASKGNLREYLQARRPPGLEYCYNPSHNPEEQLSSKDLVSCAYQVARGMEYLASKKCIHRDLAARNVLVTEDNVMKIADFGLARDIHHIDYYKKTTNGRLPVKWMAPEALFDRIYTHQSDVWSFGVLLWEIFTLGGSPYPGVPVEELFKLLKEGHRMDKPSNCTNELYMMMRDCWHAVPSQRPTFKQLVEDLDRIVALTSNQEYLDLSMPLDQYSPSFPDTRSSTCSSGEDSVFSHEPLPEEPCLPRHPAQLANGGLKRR

[5] = pre-incubated for 5 to 10 minutes
[6] = pre-incubated for 5 to 10 minutes, read-out: FGFR3 IC50
[7] = pre-incubated for 4 hours, read-out: FGFR3 IC50
[8] = FGFR1 IC50 (nM), pre-incubated for 5 to 10 minutes
[9] = FGFR1 IC50 (nM), pre-incubated for 4 hours
[10] = read-out: FGFR1 IC50, pre-incubated for 5 to 10 minutes
[11] = read-out: FGFR1 IC50, pre-incubated for 4 hours

Chain of FGFR2 (P21802 22-821): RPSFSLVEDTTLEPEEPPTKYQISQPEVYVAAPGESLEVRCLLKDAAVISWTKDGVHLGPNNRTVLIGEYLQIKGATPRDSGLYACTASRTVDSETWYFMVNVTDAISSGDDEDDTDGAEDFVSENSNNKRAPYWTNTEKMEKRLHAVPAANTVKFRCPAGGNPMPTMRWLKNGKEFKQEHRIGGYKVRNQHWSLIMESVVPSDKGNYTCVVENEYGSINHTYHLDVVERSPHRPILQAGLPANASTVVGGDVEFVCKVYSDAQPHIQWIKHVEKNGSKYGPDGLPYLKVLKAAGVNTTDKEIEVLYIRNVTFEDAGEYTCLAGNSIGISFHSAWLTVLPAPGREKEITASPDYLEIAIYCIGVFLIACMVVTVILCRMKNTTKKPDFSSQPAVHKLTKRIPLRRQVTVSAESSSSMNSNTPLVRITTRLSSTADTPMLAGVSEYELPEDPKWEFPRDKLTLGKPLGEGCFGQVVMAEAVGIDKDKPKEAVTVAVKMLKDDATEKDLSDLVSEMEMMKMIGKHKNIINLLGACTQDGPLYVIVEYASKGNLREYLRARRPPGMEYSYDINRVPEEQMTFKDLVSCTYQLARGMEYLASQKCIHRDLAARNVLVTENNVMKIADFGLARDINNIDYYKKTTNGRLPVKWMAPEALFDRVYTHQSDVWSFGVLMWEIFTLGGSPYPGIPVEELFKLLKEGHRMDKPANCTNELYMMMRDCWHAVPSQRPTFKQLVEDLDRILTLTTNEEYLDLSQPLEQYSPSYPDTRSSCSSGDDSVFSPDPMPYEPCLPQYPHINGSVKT

Row | IC50 [1, 5] [nM] | IC50 ([1]; pre-incubated for 4 hours) [nM] | FGFR1/FGFR3 IC50 ratio ([2]; pre-incubated for 4 hours) | FGFR4/FGFR3 IC50 ratio ([2]; pre-incubated for 4 hours) | IC50 [2, 6] [nM] | IC50 [2, 7] [nM] | IC50 [3, 5] [nM] | IC50 ([3]; pre-incubated for 4 hours) [nM] | IC50 [4, 9] [nM] | Compound | other results
1 | < 10 | < 10 | >10 | >10 | < 10 | < 10 | 30 to 200 | 30 to 200 | 30 to 200 | COc1cc(OC)c(F)c(N2Cc3cnc(-c4ccc(C5(C#N)CCC5)nc4)cc3N(Cc3nnc(C)o3)C2=O)c1F [Example 187, 1-(5-{3-(2,6-difluoro-3,5-dimethoxyphenyl)-1-[(5-methyl-1,3,4-oxadiazol-2-yl)methyl]-2-oxo-1,2,3,4-tetrahydropyrido[4,3-d]pyrimidin-7-yl}pyridin-2-yl)cyclobutanecarbonitrile] | IC50 [4, 8]: 10 to 30 nM
2 |  | 10 to 30 | >10 | >5 |  | < 10 |  | 30 to 200 | 30 to 200 | CNC(=O)c1ccc(CN2C(=O)N(c3c(F)c(OC)cc(OC)c3F)Cc3cnc(-c4cn(C)nc4C)cc32)cc1 [Example 62, 4-((3-(2,6-difluoro-3,5-dimethoxyphenyl)-7-(1,3-dimethyl-1H-pyrazol-4-yl)-2-oxo-3,4-dihydropyrido[4,3-d]pyrimidin-1(2H)-yl)methyl)-N-methylbenzamide] | 
3 |  | < 10 | >5 | >5 |  | < 10 |  | 10 to 30 | 10 to 30 | CCN1C(=O)N(c2c(F)c(OC)cc(OC)c2F)Cc2cnc(-c3ccc(C(N)=O)nc3)cc21 [Example 184, 5-(3-(2,6-difluoro-3,5-dimethoxyphenyl)-1-ethyl-2-oxo-1,2,3,4-tetrahydropyrido[4,3-d]pyrimidin-7-yl)picolinamide] | 
4 |  | 10 to 30 | >5 |  |  | 10 to 30 |  | 10 to 30 | 30 to 200 | CCN1C(=O)N(c2c(F)c(OC)cc(OC)c2F)Cc2cnc(-c3ccccc3)cc21 [Example 22, 3-(2,6-difluoro-3,5-dimethoxyphenyl)-1-ethyl-7-phenyl-3,4-dihydropyrido[4,3-d]pyrimidin-2(1H)-one] | 
5 | > 200 | > 200 | >1 |  | 30 to 200 | > 200 | 10 to 30 | 10 to 30 |  | COc1cc(OC)c(F)c(N2Cc3cnc(-c4cncc(Cl)c4)cc3C3(CC3)C2=O)c1F [Example 11, 6′-(5-chloropyridin-3-yl)-2′-(2,6-difluoro-3,5-dimethoxyphenyl)-1′H-spiro[cyclopropane-1,4′-[2,7]naphthyridin]-3′(2′H)-one] | FGFR1/FGFR4 IC50 ratio [3, 5]: >50; FGFR2/FGFR4 IC50 ratio [3, 5]: >20; FGFR3/FGFR4 IC50 ratio [3, 5]: >25; FGFR1/FGFR4 IC50 ratio ([3]; pre-incubated for 4 hours): >25; FGFR2/FGFR4 IC50 ratio ([3]; pre-incubated for 4 hours): >25; FGFR3/FGFR4 IC50 ratio ([3]; pre-incubated for 4 hours): >10; IC50 [4, 10]: > 200 nM; IC50 [4, 11]: > 200 nM
6 | < 10 | < 10 | >5 | >5 | < 10 | < 10 | < 10 | < 10 |  | COc1cc(OC)c(F)c(N2Cc3cnc(-c4cnn(C)c4)cc3C3(CC3)C2=O)c1F [Example 186, 2′-(2,6-difluoro-3,5-dimethoxyphenyl)-6′-(1-methyl-1H-pyrazol-4-yl)-1′,2′-dihydro-3′H-spiro[cyclopropane-1,4′-[2,7]naphthyridin]-3′-one] | IC50 [4, 10]: < 10 nM; IC50 [4, 11]: < 10 nM
7 |  | < 10 | >10 | >10 |  | < 10 |  | 30 to 200 | 30 to 200 | COc1cc(OC)c(F)c(N2Cc3cnc(-c4cn(C)nc4C)cc3N(c3ccc(F)cc3)C2=O)c1F [Example 40, 3-(2,6-difluoro-3,5-dimethoxyphenyl)-7-(1,3-dimethyl-1H-pyrazol-4-yl)-1-(4-fluorophenyl)-3,4-dihydropyrido[4,3-d]pyrimidin-2(1H)-one] | 
8 |  | 10 to 30 | >5 | >5 |  | < 10 |  | 30 to 200 | 30 to 200 | COc1cc(OC)c(F)c(N2Cc3cnc(-c4cn(C)nc4C)cc3N(Cc3ccc4c(c3)OCCO4)C2=O)c1F [Example 38, 3-(2,6-difluoro-3,5-dimethoxyphenyl)-1-((2,3-dihydrobenzo[b][1,4]dioxin-6-yl)methyl)-7-(1,3-dimethyl-1H-pyrazol-4-yl)-3,4-dihydropyrido[4,3-d]pyrimidin-2(1H)-one] | 
9 |  | < 10 | >5 | >5 |  | < 10 |  | 30 to 200 | 30 to 200 | COc1cc(OC)c(F)c(N2Cc3cnc(-c4cn(C)nc4C)cc3N(c3cccc(F)c3)C2=O)c1F [Example 99, 3-(2,6-difluoro-3,5-dimethoxyphenyl)-7-(1,3-dimethyl-1H-pyrazol-4-yl)-1-(3-fluorophenyl)-3,4-dihydropyrido[4,3-d]pyrimidin-2(1H)-one] | 
10 |  | 10 to 30 | >5 | >3 |  | 10 to 30 |  | 30 to 200 | 30 to 200 | COc1cc(OC)c(F)c(N2Cc3cnc(-c4cn(CC(=O)N5CCOCC5)nc4C)cc3C3(CC3)C2=O)c1F [Example 159, 2′-(2,6-difluoro-3,5-dimethoxyphenyl)-6′-(3-methyl-1-(2-morpholino-2-oxoethyl)-1H-pyrazol-4-yl)-1′H-spiro[cyclopropane-1,4′-[2,7]naphthyridin]-3′(2′H)-one] | 
11 |  | 30 to 200 | >5 | >5 |  | 10 to 30 |  | 30 to 200 |  | COc1cc(OC)c(F)c(N2Cc3cnc(-c4cn(C)nc4C)cc3N(c3ccc(F)c(C#N)c3)C2=O)c1F [Example 66, 5-(3-(2,6-difluoro-3,5-dimethoxyphenyl)-7-(1,3-dimethyl-1H-pyrazol-4-yl)-2-oxo-3,4-dihydropyrido[4,3-d]pyrimidin-1(2H)-yl)-2-fluorobenzonitrile] | IC50 [4, 11]: > 200 nM
12 |  | < 10 | >5 | >10 |  | < 10 |  | 30 to 200 | 10 to 30 | COc1cc(OC)c(F)c(N2Cc3cnc(-c4cn(C)nc4C)cc3N(c3cn[nH]c3)C2=O)c1F [Example 129, 3-(2,6-difluoro-3,5-dimethoxyphenyl)-7-(1,3-dimethyl-1H-pyrazol-4-yl)-1-(1H-pyrazol-4-yl)-3,4-dihydropyrido[4,3-d]pyrimidin-2(1H)-one] | 
13 |  | < 10 | >3 | >3 |  | < 10 |  | 10 to 30 | 10 to 30 | COc1cc(OC)c(F)c(N2Cc3cnc(-c4ccncc4)cc3C3(CC3)C2=O)c1F [Example 185, 2′-(2,6-difluoro-3,5-dimethoxyphenyl)-6′-(pyridin-4-yl)-1′H-spiro[cyclopropane-1,4′-[2,7]naphthyridin]-3′(2′H)-one] | 
14 |  | < 10 | >5 | >5 |  | < 10 |  | 30 to 200 | 30 to 200 | COc1cc(OC)c(F)c(N2Cc3cnc(-c4cn(C)nc4C)cc3N(C3(C#N)CC3)C2=O)c1F [Example 91, 1-(3-(2,6-difluoro-3,5-dimethoxyphenyl)-7-(1,3-dimethyl-1H-pyrazol-4-yl)-2-oxo-3,4-dihydropyrido[4,3-d]pyrimidin-1(2H)-yl)cyclopropanecarbonitrile] | 
15 | 10 to 30 |  |  |  | 10 to 30 |  | 30 to 200 |  |  | COc1cc(OC)c(F)c(N2Cc3cnc(-c4cn(C)nc4C)cc3N(Cc3cnn(CC4CCCO4)c3)C2=O)c1F (stereo not shown) [Example 127, 3-(2,6-difluoro-3,5-dimethoxyphenyl)-7-(1,3-dimethyl-1H-pyrazol-4-yl)-1-((1-((tetrahydrofuran-2-yl)methyl)-1H-pyrazol-4-yl)methyl)-3,4-dihydropyrido[4,3-d]pyrimidin-2(1H)-one] | IC50 [4, 8]: 30 to 200 nM
16 | < 10 |  |  |  | 10 to 30 |  | 30 to 200 |  |  | COc1cc(OC)c(F)c(N2Cc3cnc(-c4ccc(C5(C#N)CCC5)nc4)cc3N(CC3CC3)C2=O)c1F [Example 140, 1-(5-(1-(cyclopropylmethyl)-3-(2,6-difluoro-3,5-dimethoxyphenyl)-2-oxo-1,2,3,4-tetrahydropyrido[4,3-d]pyrimidin-7-yl)pyridin-2-yl)cyclobutanecarbonitrile] | IC50 [4, 8]: 30 to 200 nM
17 | 10 to 30 |  |  |  | 10 to 30 |  | 30 to 200 |  |  | COc1cc(OC)c(F)c(N2Cc3cnc(-c4cn(C)nc4C)cc3N(Cc3ccc4c(c3)nnn4C)C2=O)c1F [Example 118, 3-(2,6-difluoro-3,5-dimethoxyphenyl)-7-(1,3-dimethyl-1H-pyrazol-4-yl)-1-((1-methyl-1H-benzo[d][1,2,3]triazol-5-yl)methyl)-3,4-dihydropyrido[4,3-d]pyrimidin-2(1H)-one] | IC50 [4, 8]: 30 to 200 nM

Row | Compound | IC50 [1, 5] [nM] | IC50 ([1]; pre-incubated for 4 hours) [nM] | FGFR1/FGFR3 IC50 ratio ([2]; pre-incubated for 4 hours) | FGFR4/FGFR3 IC50 ratio ([2]; pre-incubated for 4 hours) | IC50 [2, 6] [nM] | IC50 [2, 7] [nM] | IC50 [3, 5] [nM] | IC50 ([3]; pre-incubated for 4 hours) [nM] | IC50 [4, 9] [nM] | other results
18 | COC(=O)N1CCC(N2C(=O)N(c3c(F)c(OC)cc(OC)c3F)Cc3cnc(-c4cn(C)nc4C)cc32)CC1 [Example 122, Methyl 4-(3-(2,6-difluoro-3,5-dimethoxyphenyl)-7-(1,3-dimethyl-1H-pyrazol-4-yl)-2-oxo-3,4-dihydropyrido[4,3-d]pyrimidin-1(2H)-yl)piperidine-1-carboxylate] |  | 10 to 30 | >5 | >5 |  |  |  | 30 to 200 |  | IC50 [2]: 10 to 30 nM; IC50 [4]: 30 to 200 nM
